Earlier results as cited in patent US6485659B1, “Electrical apparatus with dielectric fluid blend of polyalphaolefins and polyol esters or triglycerides” (priority 1995, dated 2002).
Where two headings read alike, the source gives them in different places.

Experiments:
[1] = within 7 days; Nippon
rats [2] = settings: rat, in vivo
rats [3] = settings: for chronic toxicity findings: rat, in vivo, po

## phenyl-ortho-tolyl-ethane [POXE]
[1]
  biodegradation: 100% biodegradation within 7 days (Nippon)
Rats [2]
  LD50 in rats: 2.3 ml/kg (Dielectrol III, Saperstein and Faeder article)
Rats [3]
  chronic toxicity findings: showed lower weight gain, and liver/kidney enlargement (Dielectrol - Saperstein and Faeder.)
Rats [3]; 146 mg/kg/day
  chronic toxicity findings: <146 mg/kg/day showed little to no effects. (Nippon Oil/Saperstein and Faeder)
Rats [3]; rats, oral, 0.58 ml/kg/day for 1 month, Dielectrol, Saperstein and Faeder
  mortality: In rats, 0.58 ml/kg/day for 1 month yielded 50% mortality. 0.146 ml/kg/day for 3-6 months
